{"source": "paper PMC5956890", "about": "(Journal of medicinal chemistry, 2017)", "key": {"PPARγ [1]": {"molecular_target": "T1, PPARγ (Homo sapiens, UniProt P37231)", "T1 sequence (P37231 235-505 limits assumed)": "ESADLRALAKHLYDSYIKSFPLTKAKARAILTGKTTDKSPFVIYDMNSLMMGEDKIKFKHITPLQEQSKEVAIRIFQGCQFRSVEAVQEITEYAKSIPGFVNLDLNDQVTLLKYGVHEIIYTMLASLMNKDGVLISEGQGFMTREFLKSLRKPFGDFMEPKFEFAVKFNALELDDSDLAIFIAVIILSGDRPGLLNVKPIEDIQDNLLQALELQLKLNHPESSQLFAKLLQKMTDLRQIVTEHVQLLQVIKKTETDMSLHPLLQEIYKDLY", "assay": "TR-FRET competitive binding assay PPARγ", "conditions": "concentration-response"}, "PPARα": {"molecular_target": "T2, PPARα (Homo sapiens, UniProt Q07869)", "T2 sequence (Q07869 200-468 limits assumed)": "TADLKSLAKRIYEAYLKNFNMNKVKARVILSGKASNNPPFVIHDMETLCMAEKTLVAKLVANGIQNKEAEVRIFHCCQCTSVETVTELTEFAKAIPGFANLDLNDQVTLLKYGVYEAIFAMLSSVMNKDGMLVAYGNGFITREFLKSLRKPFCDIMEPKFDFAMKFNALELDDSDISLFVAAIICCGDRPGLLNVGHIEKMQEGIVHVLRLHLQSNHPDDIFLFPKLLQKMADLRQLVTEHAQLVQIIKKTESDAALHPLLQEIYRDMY", "assay": "TR-FRET competitive binding assay PPARα", "conditions": "up to 20 µM"}, "hBM-MSCs": {"test_system": "hBM-MSCs", "assay": "adiponectin production during adipogenesis in hBM-MSCs", "conditions": "20 µM"}, "PPARδ [2]": {"molecular_target": "T3, PPARδ (Homo sapiens, UniProt Q03181)", "T3 sequence (Q03181 211-439 limits assumed)": "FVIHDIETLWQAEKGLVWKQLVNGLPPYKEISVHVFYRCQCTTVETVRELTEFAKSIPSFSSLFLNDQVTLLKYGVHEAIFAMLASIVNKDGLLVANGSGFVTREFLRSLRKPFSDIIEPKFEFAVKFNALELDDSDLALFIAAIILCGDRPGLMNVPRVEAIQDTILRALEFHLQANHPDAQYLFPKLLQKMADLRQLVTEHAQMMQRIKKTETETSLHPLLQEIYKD", "assay": "TR-FRET PPARδ corepressor assay", "assay_type": "biochemical", "conditions": "SMRT-ID2 peptide"}, "PPARδ [3]": {"molecular_target": "T3, PPARδ", "assay": "TR-FRET PPARδ coactivator assay", "assay_type": "biochemical", "conditions": "compound alone"}, "PPARγ [4]": {"molecular_target": "T4, PPARγ (Homo sapiens, UniProt P37231)", "T4 sequence (P37231 1-505)": "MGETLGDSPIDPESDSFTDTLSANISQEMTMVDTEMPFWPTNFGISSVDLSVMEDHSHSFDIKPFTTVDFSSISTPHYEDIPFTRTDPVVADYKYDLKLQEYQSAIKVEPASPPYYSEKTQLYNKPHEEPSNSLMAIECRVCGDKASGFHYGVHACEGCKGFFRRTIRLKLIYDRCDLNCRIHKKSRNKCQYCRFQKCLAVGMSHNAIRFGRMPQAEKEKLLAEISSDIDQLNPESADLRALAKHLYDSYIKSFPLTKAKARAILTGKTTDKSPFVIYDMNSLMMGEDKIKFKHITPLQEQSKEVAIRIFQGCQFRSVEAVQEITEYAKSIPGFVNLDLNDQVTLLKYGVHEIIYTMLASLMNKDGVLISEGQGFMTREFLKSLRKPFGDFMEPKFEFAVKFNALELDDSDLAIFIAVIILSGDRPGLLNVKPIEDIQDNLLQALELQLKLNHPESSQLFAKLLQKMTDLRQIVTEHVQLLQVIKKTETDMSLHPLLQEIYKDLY", "assay": "luciferase-reporter PPARγ transactivation assay in CV-1 cells", "assay_type": "cell-based", "conditions": "30 µM"}, "PPARδ [5]": {"molecular_target": "T5, PPARδ (Homo sapiens, UniProt Q03181)", "T5 sequence (Q03181 1-441)": "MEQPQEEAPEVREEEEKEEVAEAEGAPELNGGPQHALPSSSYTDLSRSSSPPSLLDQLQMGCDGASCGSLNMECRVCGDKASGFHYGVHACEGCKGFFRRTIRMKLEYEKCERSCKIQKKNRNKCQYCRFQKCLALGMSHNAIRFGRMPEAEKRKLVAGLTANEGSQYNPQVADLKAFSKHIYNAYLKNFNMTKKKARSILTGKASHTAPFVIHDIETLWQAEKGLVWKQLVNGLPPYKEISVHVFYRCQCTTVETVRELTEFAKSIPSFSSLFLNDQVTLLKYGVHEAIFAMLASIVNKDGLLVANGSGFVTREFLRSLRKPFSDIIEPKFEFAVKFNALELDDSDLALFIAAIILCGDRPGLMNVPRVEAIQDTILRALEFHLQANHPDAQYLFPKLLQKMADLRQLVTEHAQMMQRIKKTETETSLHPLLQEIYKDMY", "assay": "TR-FRET competitive binding assay PPARδ", "conditions": "concentration-response"}, "[6]": {"test_system": "ANGPTL4 and PDK4 gene transcription", "assay": "Q-RT-PCR of ANGPTL4 and PDK4 mRNA in hBM-MSCs", "assay_type": "cell-based, human", "conditions": "3rd day after induction of adipogenesis"}, "[7]": {"test_system": "STZ-induced diabetic C57BL/6J mice", "assay": "STZ-induced diabetes mouse model", "assay_type": "in vivo", "conditions": "oral 20 mg/kg for 5 days, male C57BL/6J"}}, "note": "Entries after “also recorded” stand apart in the source; their conditions may differ.", "data": [{"smiles": "O[C@@H]1[C@H](O)CS[C@H]1n1cnc2c(NCc3cccc(I)c3)nc(Cl)nc21", "note": "[Compound 3a, (2R,3R,4S)-2-(2-Chloro-6-((3-iodobenzyl)amino)-9H-purin-9-yl)tetrahydrothiophene-3,4-diol]", "values": [{"measurement": "PPARγ binding activity", "setting": "PPARγ [1]", "result": "significant competitive binding activity"}, {"measurement": "replacement of labeled PPARα ligand binding", "setting": "PPARα", "result": "≤ 50", "unit": "%"}, {"measurement": "rank as promoter of adipogenesis among tested A3 AR agonists and antagonists", "setting": "hBM-MSCs", "result": "most potent promoter of adipogenesis"}, {"measurement": "interaction between PPARδ and corepressor peptide", "setting": "PPARδ [2]", "result": "promotion of the interaction between PPARδ and corepressor peptide"}, {"measurement": "recruitment of labeled coactivator peptide to PPARδ", "setting": "PPARδ [3]", "result": "no effect on the recruitment of the labeled coactivator peptide"}, {"measurement": "PPARγ transactivation compared to troglitazone", "setting": "PPARγ [4]", "result": "did not achieve maximal PPARγ transactivation activity"}, {"measurement": "PPARδ binding activity", "setting": "PPARδ [5]", "result": "maximal PPARδ binding activity"}, {"measurement": "ANGPTL4 mRNA level", "setting": "[6]", "result": "did not affect ANGPTL4 and PDK4 mRNA levels"}, {"measurement": "PDK4 mRNA level", "setting": "[6]", "result": "did not affect ANGPTL4 and PDK4 mRNA levels"}, {"measurement": "serum lactate levels", "setting": "[7]", "result": "tended to decrease the serum lactate levels"}, {"measurement": "serum triglyceride levels", "setting": "[7]", "result": "downregulated serum triglyceride levels"}, {"measurement": "serum glucose levels", "setting": "[7]; 20 mg/kg", "result": "significantly decreased serum glucose levels; also recorded: dose-dependent"}]}]}
